Biological target: EP2 subtype of the human PGE2 receptor (hEP2 receptor) (Homo sapiens, UniProt P43116)
Assay: cAMP antagonism test, human prostaglandin E2 (subtype EP2) receptor signal
Type: cell-based
From the text: 1. Detection of Antagonism to the Human Prostaglandin E2 (Subtype EP2) Receptor Signal
The binding of PGE2 to the EP2 subtype of the human PGE2 receptor induces the activation of membrane-located adenylate cyclases and leads to the formation of cAMP. In the presence of the phosphodiesterase inhibitor IBMX, the cAMP accumulated owing to this stimulation and released by cell lysis is used in a competitive detection method. In this test, the cAMP present in the lysate competes with a fluorescence-labelled cAMP (cAMP-d2) for binding to an Eu cryptate-labelled anti-cAMP antibody.
In the absence of cellular cAMP, a maximal signal is produced, which is attributable to the binding of this cAMP-d2 molecule to the antibody. After excitation of the […] at 337 nm, there is a fluorescence resonance energy transfer (FRET) to the Eu cryptate molecules of the anti-cAMP antibody (labelled therewith), followed by a long-lasting emission signal at 665 nm (and at […]). Both signals are measured in a suitable measurement instrument with a time delay, i.e. after decay of the background fluorescence. Any increase in the low FRET signal caused by prostaglandin E2 administration (measured as well ratio change=emission665nm/emission620nm*10000) indicates the action of antagonists.
1.2.1. Test for Antagonism (Data Per Well of a 384-Well Plate):
To a test plate with the substance solutions already added (0.05 μl; 100% DMSO, concentration range from 0.8 nM-16.5 nM) were added 4 μl of a cAMP-d2/cell suspension (625000 cells/ml). After a 20-minute preincubation at room temperature (RT), 2 μl of a 3×PGE2 solution (1.5 nM, in PBS-IBMX) were added and incubated in the presence of the agonist for a further 60 mins at RT (volume: […]). Next the reaction was stopped by addition of 2 μl of lysis buffer and incubated for a further 20 mins at RT before the actual measurement (volume: ˜8 μl).

Sequence of EP2 subtype of the human PGE2 receptor (hEP2 receptor) (P43116 whole entry): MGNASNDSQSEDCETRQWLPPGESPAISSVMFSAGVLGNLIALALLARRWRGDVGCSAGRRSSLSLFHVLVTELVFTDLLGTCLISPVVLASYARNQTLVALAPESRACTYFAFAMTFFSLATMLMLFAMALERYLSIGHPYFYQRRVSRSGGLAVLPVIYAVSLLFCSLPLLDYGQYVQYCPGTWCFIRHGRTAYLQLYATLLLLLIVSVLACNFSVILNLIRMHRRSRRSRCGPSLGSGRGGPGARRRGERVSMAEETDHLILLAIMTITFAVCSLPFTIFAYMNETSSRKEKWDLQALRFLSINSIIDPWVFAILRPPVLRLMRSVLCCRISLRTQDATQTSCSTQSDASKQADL

| Structure (SMILES) | IC50 [nM] |
| --- | --- |
| COCCNC(=O)c1ccc2nn(CC3CCN(C(=O)c4ccc(Oc5cccc(F)c5)cc4)CC3)cc2c1C [Example E174, 2-({1-[4-(3-fluorophenoxy)benzoyl]piperidin-4-yl}methyl)-N-(2-methoxyethyl)-4-methyl-2H-indazole-5-carboxamide] | > 50 |
| COCCNC(=O)c1ccc2nn(CC3CCN(C(=O)c4ccc(-c5cc(F)cc(F)c5)c(C)c4)CC3)cc2c1C [Example E204, 2-({1-[(3′,5′-difluoro-2-methylbiphenyl-4-yl)carbonyl]piperidin-4-yl}methyl)-N-(2-methoxyethyl)-4-methyl-2H-indazole-5-carboxamide] | > 50 |
| Cc1c(C(=O)NCCOC(F)(F)F)ccc2nn(CC3CCN(C(=O)c4ccc(-c5ccc(F)cc5)cc4)CC3)cc12 [Example E79, 2-({1-[(4′-fluorobiphenyl-4-yl)carbonyl]piperidin-4-yl}methyl)-4-methyl-N-[2-(trifluoromethoxy)ethyl]-2H-indazole-5-carboxamide] | > 50 |
| Cc1c(C(=O)NCCOC(C)(C)C)ccc2nn(CC3CCN(C(=O)c4ccc(-c5ccc(F)cc5)cc4)CC3)cc12 [Example E83, N-(2-tert-butoxyethyl)-2-({1-[(4′-fluorobiphenyl-4-yl)carbonyl]piperidin-4-yl}methyl)-4-methyl-2H-indazole-5-carboxamide] | > 50 |
| COCCNC(=O)c1ccc2nn(CC3CN(C(=O)c4ccc(Oc5ccc(Cl)cc5)cc4)C3)cc2c1C [Example E116, 2-({1-[4-(4-chlorophenoxy)benzoyl]azetidin-3-yl}methyl)-N-(2-methoxyethyl)-4-methyl-2H-indazole-5-carboxamide] | > 50 |
| Cc1c(C(=O)NCC(F)(F)F)ccc2nn(CC3CCN(C(=O)c4ccc(SC(F)(F)F)cc4)CC3)cc12 [Example E125, 4-methyl-N-(2,2,2-trifluoroethyl)-2-[(1-{4-[(trifluoromethyl)sulphanyl]benzoyl}-piperidin-4-yl)methyl]-2H-indazole-5-carboxamide] | > 50 |
| COCCNC(=O)c1ccc2nn(CC3CCN(C(=O)c4ccc(OC(C)C)cc4F)CC3)cc2c1C [Example E175, 2-{[1-(2-fluoro-4-isopropoxybenzoyl)piperidin-4-yl]methyl}-N-(2-methoxyethyl)-4-methyl-2H-indazole-5-carboxamide] | > 50 |
| Cc1c(C(=O)NCCOCC2CC2)ccc2nn(CC3CCN(C(=O)c4ccc(Cl)cc4)CC3)cc12 [Example E59, 2-{[1-(4-chlorobenzoyl)piperidin-4-yl]methyl}-N-[2-(cyclopropylmethoxy)ethyl]-4-methyl-2H-indazole-5-carboxamide] | > 50 |
| Cc1c(C(=O)NCCOC(F)(F)F)ccc2nn(CC3CCN(C(=O)c4ccc(Oc5ccc(F)cc5)cc4)CC3)cc12 [Example E78, 2-({1-[4-(4-fluorophenoxy)benzoyl]piperidin-4-yl}methyl)-4-methyl-N-[2-(trifluoro-methoxy)ethyl]-2H-indazole-5-carboxamide] | > 50 |
| COCCNC(=O)c1ccc2nn(CC3CCN(C(=O)c4ccc(Oc5nccc(C(F)(F)F)n5)cc4)CC3)cc2c1C [Example E163, N-(2-methoxyethyl)-4-methyl-2-{[1-(4-{[4-(trifluoromethyl)pyrimidin-2-yl]oxy}-benzoyl)piperidin-4-yl]methyl}-2H-indazole-5-carboxamide] | > 50 |
| COCCNC(=O)c1ccc2nn(CC3CCN(C(=O)c4ccc(Oc5ccc(F)c(F)c5)cc4)CC3)cc2c1C [Example E172, 2-({1-[4-(3,4-difluorophenoxy)benzoyl]piperidin-4-yl}methyl)-N-(2-methoxyethyl)-4-methyl-2H-indazole-5-carboxamide] | > 50 |
| COCCNC(=O)c1ccc2nn(CC3CCN(C(=O)c4ccc(-c5ccc(OC)cc5)cc4F)CC3)cc2c1C [Example E41, 2-({1-[(3-fluoro-4′-methoxybiphenyl-4-yl)carbonyl]piperidin-4-yl}methyl)-N-(2-methoxyethyl)-4-methyl-2H-indazole-5-carboxamide] | > 50 |
| COCCNC(=O)c1ccc2nn(CC3CCN(C(=O)c4ccc(Oc5cccnc5)cc4)CC3)cc2c1C [Example E160, N-(2-methoxyethyl)-4-methyl-2-({1-[4-(pyridin-3-yloxy)benzoyl]piperidin-4-yl}methyl)-2H-indazole-5-carboxamide] | > 50 |
| Cc1c(C(=O)NCCOCC2CC2)ccc2nn(CC3CCN(C(=O)c4ccc(-c5ccc(F)cc5)cc4)CC3)cc12 [Example E63, N-[2-(cyclopropylmethoxy)ethyl]-2-({1-[(4′-fluorobiphenyl-4-yl)carbonyl]piperidin-4-yl}methyl)-4-methyl-2H-indazole-5-carboxamide] | > 50 |

Now from value to compound:

| IC50 [nM] | Structure (SMILES) |
| --- | --- |
| > 50 | COCCNC(=O)c1ccc2nn(CC3CCN(C(=O)c4ccc(-c5cccc(C(F)(F)F)n5)cc4)CC3)cc2c1C [Example E182, N-(2-methoxyethyl)-4-methyl-2-[(1-{4-[6-(trifluoromethyl)pyridin-2-yl]benzoyl}-piperidin-4-yl)methyl]-2H-indazole-5-carboxamide] |
| > 50 | COCCNC(=O)c1ccc2nn(CC3CCN(C(=O)c4ccc(-c5ccc(C(F)(F)F)cc5)cc4)CC3)cc2c1C [Example E173, N-(2-methoxyethyl)-4-methyl-2-[(1-{[4′-(trifluoromethyl)biphenyl-4-yl]carbonyl}-piperidin-4-yl)methyl]-2H-indazole-5-carboxamide] |
| > 50 | COCCNC(=O)c1ccc2nn(CC3CCN(C(=O)c4ccc(Br)c(C)c4)CC3)cc2c1C [Example E154, 2-{[1-(4-bromo-3-methylbenzoyl)piperidin-4-yl]methyl}-N-(2-methoxyethyl)-4-methyl-2H-indazole-5-carboxamide] |
| > 50 | Cc1c(C(=O)NCCOC2CCC2)ccc2nn(CC3CN(C(=O)c4ccc(OC(F)(F)F)cc4)C3)cc12 [Example E101, N-[2-(cyclobutyloxy)ethyl]-4-methyl-2-({1-[4-(trifluoromethoxy)benzoyl]azetidin-3-yl}methyl)-2H-indazole-5-carboxamide] |
| > 50 | COCCNC(=O)c1ccc2nn(CC3CCN(C(=O)c4ccc(Oc5cccc(C(F)(F)F)n5)cc4)CC3)cc2c1C [Example E165, N-(2-methoxyethyl)-4-methyl-2-{[1-(4-{[6-(trifluoromethyl)pyridin-2-yl]oxy}benzoyl)-piperidin-4-yl]methyl}-2H-indazole-5-carboxamide] |
| > 50 | Cc1c(C(=O)NCCOC(F)(F)F)ccc2nn(CC3CCN(C(=O)c4ccc(Oc5ccc(C(F)(F)F)cc5)cc4)CC3)cc12 [Example E80, 4-methyl-N-[2-(trifluoromethoxy)ethyl]-2-[(1-{4-[4-(trifluoromethyl)phenoxy]-benzoyl}piperidin-4-yl)methyl]-2H-indazole-5-carboxamide] |
| > 50 | COCCNC(=O)c1ccc2nn(CC3CCN(C(=O)c4ccc(-c5ccc(F)cc5)cc4)CC3)cc2c1C [Example E5, 2-({1-[(4′-fluorobiphenyl-4-yl)carbonyl]piperidin-4-yl}methyl)-N-(2-methoxyethyl)-4-methyl-2H-indazole-5-carboxamide] |
| > 50 | Cc1c(C(=O)NCCOCC2CC2)ccc2nn(CC3CN(C(=O)c4ccc(Cl)cc4)C3)cc12 [Example E102, 2-{[1-(4-chlorobenzoyl)azetidin-3-yl]methyl}-N-[2-(cyclopropylmethoxy)ethyl]-4-methyl-2H-indazole-5-carboxamide] |
| > 50 | COCCNC(=O)c1ccc2nn(CC3CCN(C(=O)c4ccc(Oc5ccccc5)cc4)CC3)cc2c1C [Example E18, N-(2-methoxyethyl)-4-methyl-2-{[1-(4-phenoxybenzoyl)piperidin-4-yl]methyl}-2H-indazole-5-carboxamide] |
| > 50 | COCCNC(=O)c1ccc2nn(CC3CCN(C(=O)c4ccc(-c5ccc(C(F)(F)F)nc5)cc4)CC3)cc2c1C [Example E187, N-(2-methoxyethyl)-4-methyl-2-[(1-{4-[6-(trifluoromethyl)pyridin-3-yl]benzoyl}-piperidin-4-yl)methyl]-2H-indazole-5-carboxamide] |
| > 50 | COCCNC(=O)c1ccc2nn(CC3CCN(C(=O)c4ccc(-c5cccc(OC)n5)cc4)CC3)cc2c1C [Example E191, N-(2-methoxyethyl)-2-({1-[4-(6-methoxypyridin-2-yl)benzoyl]piperidin-4-yl}methyl)-4-methyl-2H-indazole-5-carboxamide] |
| > 50 | COCCNC(=O)c1ccc2nn(CC3CN(C(=O)c4ccc(SC(F)(F)F)cc4)C3)cc2c1C [Example E88, N-(2-methoxyethyl)-4-methyl-2-[(1-{4-[(trifluoromethyl)sulphanyl]benzoyl}azetidin-3-yl)methyl]-2H-indazole-5-carboxamide] |
| > 50 | COCCNC(=O)c1ccc2nn(CC3CCN(C(=O)c4ccc(Oc5ccc(Cl)cc5)cc4)CC3)cc2c1C [Example E13, 2-({1-[4-(4-chlorophenoxy)benzoyl]piperidin-4-yl}methyl)-N-(2-methoxyethyl)-4-methyl-2H-indazole-5-carboxamide] |

— patent US9655887B2, “Pharmaceutical composition and the use thereof, and application regime of said pharmaceutical composition for on-demand contraception” (BAYER PHARMA AKTIENGESELLSCHAFT, priority 2013, dated 2017)
